Laboratory results from publication PMC12548400, “Urease promotes pH homeostasis and growth of Staphylococcus aureus in skin-like conditions” (Journal of Bacteriology, 2025).

Assays:
[1] = biological target: T1, S. aureus urease (Staphylococcus aureus, UniProt Q2FEK3); assay: urease activity in cell-free lysate with […] urea; coupled glutamate dehydrogenase/NADH assay; format: biochemical
T1 construct: gene ureC; native urease in cell-free lysates of S. aureus LAC (USA300); with UreA, UreB (urease subunits)

[2] = biological target: T2, jack bean urease (Canavalia ensiformis, UniProt P07374); assay: inhibition of purified urease; coupled glutamate dehydrogenase/NADH depletion assay at […] nm; format: biochemical
T2 construct: commercially purified jack bean urease

[3] = biological target: T3, S. aureus urease (Staphylococcus aureus, UniProt P67403); assay: urea hydrolysis in lysates by coupled enzyme assay; activity lost in ureD::Tn mutant and restored by complementation; format: cell-based
T3 construct: gene ureC; native urease in cell lysates of S. aureus LAC (USA300); with UreA, UreB (urease subunits)
T3 sequence (P67403 whole entry): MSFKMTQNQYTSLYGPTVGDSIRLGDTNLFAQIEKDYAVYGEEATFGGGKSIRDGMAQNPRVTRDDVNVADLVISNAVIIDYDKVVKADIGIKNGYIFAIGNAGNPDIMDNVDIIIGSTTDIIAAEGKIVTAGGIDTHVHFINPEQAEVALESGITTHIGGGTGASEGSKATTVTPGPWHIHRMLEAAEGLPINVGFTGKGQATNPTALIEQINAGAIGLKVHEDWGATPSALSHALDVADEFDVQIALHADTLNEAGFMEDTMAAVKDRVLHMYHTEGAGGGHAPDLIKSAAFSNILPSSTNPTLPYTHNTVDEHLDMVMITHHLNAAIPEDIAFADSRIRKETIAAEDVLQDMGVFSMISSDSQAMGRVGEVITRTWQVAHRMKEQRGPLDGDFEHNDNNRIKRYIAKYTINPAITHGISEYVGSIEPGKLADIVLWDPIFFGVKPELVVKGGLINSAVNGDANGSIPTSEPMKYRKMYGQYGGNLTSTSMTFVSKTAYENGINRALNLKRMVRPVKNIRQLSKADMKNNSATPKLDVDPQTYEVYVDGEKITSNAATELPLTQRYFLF

T1 sequence (Q2FEK4 whole entry): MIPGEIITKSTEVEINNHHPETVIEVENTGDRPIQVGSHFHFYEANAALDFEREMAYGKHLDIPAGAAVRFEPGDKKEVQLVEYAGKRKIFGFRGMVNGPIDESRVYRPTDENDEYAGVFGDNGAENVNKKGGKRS
T1 sequence (Q2FEK3 whole entry): as the sequence (P67403 whole entry) above
T1 sequence (Q2FEK5 whole entry, further chain): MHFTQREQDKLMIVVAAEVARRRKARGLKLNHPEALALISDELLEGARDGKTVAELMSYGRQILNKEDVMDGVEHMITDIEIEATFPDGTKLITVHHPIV
T2 sequence (P07374 whole entry, looked up): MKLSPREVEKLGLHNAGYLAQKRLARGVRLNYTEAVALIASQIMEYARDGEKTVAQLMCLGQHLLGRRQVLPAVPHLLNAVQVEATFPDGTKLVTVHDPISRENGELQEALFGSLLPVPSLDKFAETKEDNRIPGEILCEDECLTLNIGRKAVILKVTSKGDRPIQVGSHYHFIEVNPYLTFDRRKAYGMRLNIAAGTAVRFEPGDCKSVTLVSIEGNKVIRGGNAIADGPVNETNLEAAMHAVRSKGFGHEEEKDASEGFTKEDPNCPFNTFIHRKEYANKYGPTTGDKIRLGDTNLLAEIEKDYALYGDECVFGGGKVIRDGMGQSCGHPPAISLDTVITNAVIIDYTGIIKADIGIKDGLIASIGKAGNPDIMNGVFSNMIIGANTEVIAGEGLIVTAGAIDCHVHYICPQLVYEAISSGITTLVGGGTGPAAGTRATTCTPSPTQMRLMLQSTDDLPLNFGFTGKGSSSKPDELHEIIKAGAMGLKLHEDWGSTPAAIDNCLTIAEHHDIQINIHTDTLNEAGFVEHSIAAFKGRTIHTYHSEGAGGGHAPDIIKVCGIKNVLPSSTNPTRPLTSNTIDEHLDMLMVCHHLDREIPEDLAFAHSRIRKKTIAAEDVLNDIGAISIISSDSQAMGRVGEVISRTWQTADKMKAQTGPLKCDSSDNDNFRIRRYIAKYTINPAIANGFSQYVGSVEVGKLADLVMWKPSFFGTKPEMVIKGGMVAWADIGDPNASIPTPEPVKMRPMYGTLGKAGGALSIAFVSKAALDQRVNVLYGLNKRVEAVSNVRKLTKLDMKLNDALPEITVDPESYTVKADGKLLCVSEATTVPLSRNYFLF

| Compound | IC50 [1] [nM] | IC50 [2] [nM] | urea hydrolysis in lysates by coupled enzyme assay; activity lost in ureD::Tn mu [3] |
| --- | --- | --- | --- |
| NP(N)(=O)NC(=O)c1ccc(F)cc1 [FF, N-(diaminophosphinyl)-4-fluorobenzenamide] | 34.2 | 131 |  |
| NC(N)=O [urea] |  |  | loss of urease activity in the mutant strain and reconstitution of activity in the complementation strain using a coupled enzyme assay |
